Reference: article PMC11447181 (Nature Communications, 2024)
Values joined by “and” are separate entries in the source; they are usually repeats but may differ in a detail not shown here. Identical values can stand only once. “Also recorded” adds a separate entry of the source.

Tests used:
[1] = target: T1, hSLC19A3-wt overexpressed in Expi293F cells (Homo sapiens, UniProt Q9BZV2); test: Mass spectrometry-based cellular thiamine-d3 uptake assay; type: cell-based; details: 200 μM compound, 2 μM thiamine-d3, 5 min, n = 3
T1 construct: full-length, wildtype human SLC19A3; expressed in transfected cells; host or cells: Expi293F
Method: The cells were then pelleted for 5 min at 250×g and resuspended in 1×PBS (pH 7.4) at a cell density of 2 million cells per mL. The cell suspension was subsequently transferred to a 96-deep well plate in three technical replicates per condition (n = 3, 1 mL per well, corresponding to 2 million cells per condition). 200 μM of the selected compounds were added to the respective wells and the cells were incubated for 1 min on a shaking platform. […] Afterwards, the cells were pelleted for 5 min at 500×g and washed 3× with 1 mL 1×PBS (pH7.4), before transferring them to a fresh 96-deep well plate. The cell pellets were stored at –70 °C. For the LC-MS/MS analysis, the samples were extracted by adding 500 µL of a mixture of H2O:MeOH:ACN (1:1:1, v/v), containing 5% (v/v) formic acid. After vortexing and ultrasonication in a water bath for 5 min at 4 °C, samples were incubated for 20 min at –20 °C. […] The supernatants were then transferred for LC-MS analysis, which was initiated within one hour after sample preparation. LC-MS/MS analysis was performed on a Vanquish UHPLC system coupled to an Orbitrap Exploris 240 high-resolution mass spectrometer (Thermo Fisher Scientific, MA, USA) in positive ESI (electrospray ionization) mode. Chromatographic separation was carried out on an Atlantis Premier BEH Z-HILIC column (Waters, MA, USA; 2.1 mm × 100 mm, 1.7 µm) at a flow rate of 0.25 mL/min. The mobile phase consisted of water:acetonitrile (9:1, v/v; mobile phase phase A) and acetonitrile:water (9:1, v/v; mobile phase B), which were modified with a total buffer concentration of 10 mM ammonium formate. The aqueous portion of each mobile phase was adjusted to pH 3.0 via addition of formic acid. The following gradient (8 min total run time including re-equilibration) was applied (time [min]/%B): 0/90, 3/85, 3.5/60, 4/60, 5/90, 8/90. Column temperature was maintained at 40 °C, the autosampler was set to 4 °C and sample injection volume was set to 3 µL. Analytes were recorded via a full scan with a mass resolving power of 120,000 over a mass range from 60 to 900 m/z (scan time: 100 ms, RF lens: 70%).
All experimental samples were measured in a randomized manner. Pooled quality control (QC) samples were prepared by mixing equal aliquots from each processed sample. Multiple QCs were injected at the beginning of the analysis in order to equilibrate the analytical system. A QC sample was analyzed after every 6th experimental sample to monitor instrument performance throughout the sequence. For determination of background signals and subsequent background subtraction, an additional processed blank sample was recorded. Data was processed using TraceFinder 5.1 and raw peak area data was exported for relative metabolite quantification.

[2] = clinical trial ID NCT01437787; cited from earlier work
[3] = test system: SLC19A3; details: cited from earlier work
[4] = target: hSLC19A3 W59A (Homo sapiens, UniProt Q9BZV2, W59A); test: biochemical
Method: (§1) The thermal stability of the hSLC19A3 constructs and their binding affinities for small molecules were determined by nanoDSF, using a Prometheus NT.48 (NanoTemper Technologies). For sample preparation, the protein was diluted to a final concentration of 4 μM in SEC buffer and supplied with the respective compounds in a concentration range from 2 μM to 2 mM. Before measurement, the samples were incubated for 30 min at room temperature. Melting scans were performed at a temperature range from 20 to 95 °C with a temperature increment of 1 °C per minute. Thermal unfolding curves were recorded by measuring the ratio of the tryptophan-fluorescence at 350 nm (F350) and 330 nm (F330). The protein melting temperature (Tm) of a given sample was determined as the inflection point of the thermal unfolding curves, or the local maximum of its first derivative. The measured curves were analysed using the manufacturer’s software (PR.ThermControl, v 2.1.2, NanoTemper Technologies). Based on the determined Tm values, ligand induced thermal shifts (ΔTm) were determined as the difference between the melting temperature of the ligand-bound state (Tm) and the apo state (Tm^apo).
(§2) As R, Tstd and L are known and the ΔTm and Tm^apo are experimentally determined, non-linear curve fitting can be used to estimate Ea1 and Kd,app. The fitting was performed using symfit (v. 0.5.3), as described in Kotov et al., based on theoretical considerations formulated in Hall, 2019[56].

[5] = target: hSLC19A3 Y151A (Homo sapiens, UniProt Q9BZV2, Y151A); test: biochemical
Method: as §1, §2

[6] = target: hSLC19A3-Glu320Gln (Homo sapiens, UniProt Q9BZV2, E320Q); test: biochemical
Method: as §1, §2

[7] = target: hSLC19A3-gf (N45Q, N166Q) (Homo sapiens, UniProt Q9BZV2, N166Q/N45Q); test: biochemical
Method: as §1, §2

[8] = target: hSLC19A3-Glu32Lys (Homo sapiens, UniProt Q9BZV2, E32K); test: biochemical; details: E32K mutant
Method: as §1, §2

[9] = target: hSLC19A3 Thr422Ala (Homo sapiens, UniProt Q9BZV2, T422A); test: biochemical
Method: as §1, §2

[10] = target: hSLC19A3 F56A (Homo sapiens, UniProt Q9BZV2, F56A); test: biochemical
Method: as §1, §2

[11] = target: hSLC19A3-Lys44Glu (Homo sapiens, UniProt Q9BZV2, K44E); test: biochemical
Method: as §1, §2

[12] = target: hSLC19A3-E110Q (Homo sapiens, UniProt Q9BZV2, E110Q); test: biochemical; details: Kd,app for thiamine, E110Q mutant; n = 3
Method: as §1, §2

[13] = target: hSLC19A3 Y113A (Homo sapiens, UniProt Q9BZV2, Y113A); test: biochemical
Method: as §1, §2

[14] = target: hSLC19A3 Y151F (Homo sapiens, UniProt Q9BZV2, Y151F); test: biochemical
Method: as §1, §2

[15] = target: hSLC19A3 Q300A (Homo sapiens, UniProt Q9BZV2, Q300A); test: biochemical
Method: as §1, §2

[16] = target: T2, hSLC19A3-wt (Homo sapiens, UniProt Q9BZV2); test: nanoDSF thermal shift assay / apparent binding affinity, wildtype transporter
T2 construct: full-length, wildtype human SLC19A3; made in house; host or cells: Expi293F

[17] = target: hSLC19A3 N297A (Homo sapiens, UniProt Q9BZV2, N297A); details: N297A mutant
Method: as §1
As R, Tstd and L are known and the ΔTm and Tm^apo are experimentally determined, non-linear curve fitting can be used to estimate Ea1 and Kd,app. […]

[18] = test system: OCT1 (SLC22A1); details: read-out: Km (thiamine uptake); cited from earlier work
[19] = test system: SLC19A2; details: read-out: Km (thiamine uptake); cited from earlier work
[20] = test system: MFSD1; details: negative control; thiamine titration 1.95 μM to 2 mM
Method: as §1

T2 sequence (Q9BZV2 with tags, fused parts or gaps): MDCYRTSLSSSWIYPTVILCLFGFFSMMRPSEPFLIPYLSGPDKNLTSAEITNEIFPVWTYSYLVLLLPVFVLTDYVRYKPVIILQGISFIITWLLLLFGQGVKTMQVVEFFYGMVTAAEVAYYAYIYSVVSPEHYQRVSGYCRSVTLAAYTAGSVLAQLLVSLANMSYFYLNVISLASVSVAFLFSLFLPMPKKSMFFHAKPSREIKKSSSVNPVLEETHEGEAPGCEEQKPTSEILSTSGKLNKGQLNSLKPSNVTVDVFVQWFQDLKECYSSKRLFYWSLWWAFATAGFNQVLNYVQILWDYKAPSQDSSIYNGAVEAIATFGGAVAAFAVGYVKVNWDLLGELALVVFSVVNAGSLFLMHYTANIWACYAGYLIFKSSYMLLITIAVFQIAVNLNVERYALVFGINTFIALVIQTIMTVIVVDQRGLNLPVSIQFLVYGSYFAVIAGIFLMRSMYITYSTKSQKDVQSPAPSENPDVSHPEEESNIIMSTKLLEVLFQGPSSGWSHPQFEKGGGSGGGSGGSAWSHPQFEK
hSLC19A3-E110Q, sequence (Q9BZV2 with tags, fused parts or gaps E110Q): as the sequence (Q9BZV2 with tags, fused parts or gaps) above, with E110Q counted along it
hSLC19A3-Glu32Lys, sequence (Q9BZV2 with tags, fused parts or gaps E32K): as the sequence (Q9BZV2 with tags, fused parts or gaps) above, with E32K counted along it
hSLC19A3 W59A, sequence (Q9BZV2 with tags, fused parts or gaps W59A): as the sequence (Q9BZV2 with tags, fused parts or gaps) above, with W59A counted along it
hSLC19A3-gf (N45Q, N166Q), sequence (Q9BZV2 with tags, fused parts or gaps N45Q/N166Q): as the sequence (Q9BZV2 with tags, fused parts or gaps) above, with N45Q, N166Q counted along it
hSLC19A3 Y113A, sequence (Q9BZV2 with tags, fused parts or gaps Y113A): as the sequence (Q9BZV2 with tags, fused parts or gaps) above, with Y113A counted along it
hSLC19A3-Glu320Gln, sequence (Q9BZV2 with tags, fused parts or gaps E320Q): as the sequence (Q9BZV2 with tags, fused parts or gaps) above, with E320Q counted along it
hSLC19A3 Y151F, sequence (Q9BZV2 with tags, fused parts or gaps Y151F): as the sequence (Q9BZV2 with tags, fused parts or gaps) above, with Y151F counted along it
hSLC19A3-Lys44Glu, sequence (Q9BZV2 with tags, fused parts or gaps K44E): as the sequence (Q9BZV2 with tags, fused parts or gaps) above, with K44E counted along it
hSLC19A3 N297A, sequence (Q9BZV2 with tags, fused parts or gaps N297A): as the sequence (Q9BZV2 with tags, fused parts or gaps) above, with N297A counted along it
hSLC19A3 Q300A, sequence (Q9BZV2 with tags, fused parts or gaps Q300A): as the sequence (Q9BZV2 with tags, fused parts or gaps) above, with Q300A counted along it
T1 sequence (Q9BZV2 with tags, fused parts or gaps): as the sequence (Q9BZV2 with tags, fused parts or gaps) above
hSLC19A3 Y151A, sequence (Q9BZV2 with tags, fused parts or gaps Y151A): as the sequence (Q9BZV2 with tags, fused parts or gaps) above, with Y151A counted along it
hSLC19A3 F56A, sequence (Q9BZV2 with tags, fused parts or gaps F56A): as the sequence (Q9BZV2 with tags, fused parts or gaps) above, with F56A counted along it
hSLC19A3 Thr422Ala, sequence (Q9BZV2 with tags, fused parts or gaps T422A): as the sequence (Q9BZV2 with tags, fused parts or gaps) above, with T422A counted along it

Cc1cnc(Nc2ccc(OCCN3CCCC3)cc2)nc1Nc1cccc(S(=O)(=O)NC(C)(C)C)c1 [fedratinib]
inhibition of thiamine uptake through hSLC19A3, in words [1]: strongly suppressed the thiamine transport activity of hSLC19A3 | adverse event in patients [2]: induced the development of Wernicke’s encephalopathy | substrate status at the transporter [3]: xenobiotic substrates of the transporter

Cc1ncc(C[n+]2csc(CCO)c2C)c(N)n1 [thiamine]
Kd [4]: 8.3 ± 1 µM | effect of mutation on thiamine binding, in words ([4]; W59A mutant (aromatic clamp)): did not impair thiamine binding | Kd [5]: 17.8 ± 1.8 µM | Kd [6]: 284 ± 45 µM | decrease in affinity for thiamine versus wildtype ([6]; E320Q mutant): 20 fold | Kd [7]: 10.4 ± 0.9 µM | effect of the glycosylation-site mutations on thiamine binding, in words ([7]; thermal stability experiments): did not show any interference of these mutations with thiamine binding | drop in affinity for thiamine versus wildtype [8]: 10 fold and > 10 fold | Kd ([8]; Kd,app for thiamine, n = 3): 145 µM | Kd [9]: 172 ± 35 µM | Kd [10]: 4 ± 0.3 µM | Kd [11]: 2.1 ± 0.1 µM | affinity for thiamine versus wildtype ([11]; K44E mutant): six-fold higher affinity | Kd [12]: 85 µM and 85.2 µM and ~85 µM | Kd [13]: 15.5 ± 2 µM | effect of mutation on thiamine binding, in words ([13]; Y113A mutant (aromatic clamp)): did not impair thiamine binding | Kd [14]: 18.7 ± 9.1 µM | effect of mutation on thiamine affinity, in words ([14]; Y151F mutant): no strong effect on the affinity for thiamine was observed | Kd [15]: 5.6 ± 1.4 µM | Kd ([16]; Kd,app (apparent dissociation constant), concentration-dependent thermal shifts, fitted for 25 °C, n = 3, mean ± s.d.): ~12 µM and 12.7 µM | ΔTm at 2000 µM ([16]; read-out: ΔTm (thermal stabilisation of hSLC19A3)): 10.9 ± 0.3 °C | thermal shift / interaction with hSLC19A3, in words ([16]; thermal shift screen at 20 μM and 200 μM compound): induces a strong stabilisation; also recorded: strong stabilisation of the transporter | loss in binding affinity for thiamine versus wildtype [17]: ~ 250 fold | Km [18]: ~780 µM | Km [19]: 2 to 7 µM | response to thiamine, in words [20]: shows no response to thiamine | Km ([3]; read-out: Km (thiamine uptake)): 2 to 7 µM
